Patent publication US5300672A (priority 1992, dated 1994)
Converted amounts (≈) assume the structure as drawn. Read-outs that look alike come from different tables or passages of the source.

Columns and labels:
[1] = tested on: Aspergillus niger; test: Broth two-fold serial dilution MIC test (Table 3), A.n; format: cell-based; settings: dilution series 500 to 4 ppm
Source text: (§1) A minimum inhibitory concentration (MIC) value is obtained using a broth, two-fold serial dilution test performed as follows: A stock solution or dispersion of the test compound, typically at a concentration of 1%, is made in a 5:3:2 solvent solution of acetone, methanol, and water. A volume of the stock solution is dispensed into culture media to give an initial starting test concentration of 500 ppm compound.
(§2) When the test is ready to be done, each vessel in the dilution series, except the first vessel, contains an equal volume of compound free broth. The first vessel contains twice the volume of broth with the starting concentration of test compound. One half of the broth from the first vessel is transferred to the second vessel. After being mixed, one half the resulting volume is removed from the second vessel and transferred to the third vessel. The entire cycle is repeated sufficiently to give a series of concentrations amounting to 500, 250, 125, 63, 31, 16, 8, and 4 ppm, respectively.
(§3) Each vessel is then inoculated with a cell suspension of the appropriate test organism. Bacteria are grown in broth and fungi on agar slants for a time and at a temperature appropriate to the species being tested. At the end of the growth period, the broth is vortexed to disperse the cells. In the case of fungi, the spores are harvested by pipetting water onto the slant and dislodging the spores with a sterile loop. The cell/spore suspension is standardized by controlling incubation time, temperature, and the volume of the diluent. The suspension is then used to inoculate the vessels containing the broth compound. The vessels are then incubated at the appropriate temperature. After the incubation, the vessels are examined for growth/no growth. The minimum inhibitory concentration (MIC) is defined as the lowest concentration of compound that results in complete inhibition of growth of the test organism.

[2] = tested on: Aureobasidium pullulans; test: Broth two-fold serial dilution MIC test (Table 3), A.p; format: cell-based; settings: dilution series 500 to 4 ppm
Source text: as §1, §2, §3
Aureobasidium pullulans (A.p)

[3] = tested on: Escherichia coli; test: Broth two-fold serial dilution MIC test (Table 3), E.c; format: cell-based; settings: gram negative, dilution series 500 to 4 ppm
Source text: as §1, §2, §3
Escherichia coli (E.c), gram negative

[4] = tested on: Pseudomonas aerugenosa; test: Broth two-fold serial dilution MIC test (Table 3), Ps.ae; format: cell-based; settings: gram negative, dilution series 500 to 4 ppm
Source text: as §1, §2, §3
Pseudomonas aerugenosa (Ps.ae), gram negative

[5] = tested on: Pseudomonas fluorescens; test: Broth two-fold serial dilution MIC test (Table 3), Ps.fl; format: cell-based; settings: gram negative, dilution series 500 to 4 ppm
Source text: as §1, §2, §3
Pseudomonas fluorescens (Ps.fl), gram negative

[6] = tested on: Staphylococcus aureus; test: Broth two-fold serial dilution MIC test (Table 3), S.a; format: cell-based; settings: gram positive, dilution series 500 to 4 ppm
Source text: as §1, §2, §3
Staphylococcus aureus (S.a), gram positive

[7] = tested on: Pseudoperonospora cubensis; test: whole plant or invertebrate; format: in vivo; settings: Pseudoperonospora cubensis, in Cucumis sativus, 168 h; read-out: % Control CDM
[8] = tested on: Piricularia oryzae; test: whole plant or invertebrate; format: in vivo; settings: Pyricularia oryzae; for pest or weed control at 100 ppm: read-out: % Control RB, application rate 100 ppm; for pest or weed control at 200 ppm: read-out: % Control RB, application rate 200 ppm; for pest or weed control at 50 ppm: read-out: % Control RB, application rate 50 ppm
[9] = tested on: Pellicularia filamentosa (f. sp. sasiki); test: whole plant or invertebrate; format: in vivo; settings: 120 h; read-out: % Control RSB
[10] = tested on: Phytophthora infestans; test: whole plant or invertebrate; format: in vivo; settings: Phytophthora infestans, in Solanum lycopersicum, 96 h; for pest or weed control at 200 ppm: read-out: % Control TLB, application rate 200 ppm
[11] = tested on: Puccinia recondita (f. sp. tritici Races PKB and PLD); test: whole plant or invertebrate; format: in vivo; settings: Puccinia recondita, 240 h; read-out: % Control WLR
[12] = tested on: Erysiphe graminis (f. sp. tritici); test: whole plant or invertebrate; format: in vivo; settings: Blumeria graminis; read-out: % Control WPM
[13] = tested on: Puccinia graminis (f. sp. tritici Race 15B-2); test: whole plant or invertebrate; format: in vivo; settings: Puccinia graminis, 336 h, read-out: % Control WSR
[14] = tested on: Pythium ultimum; test: Pythium ultimum in vitro Fungitoxicity Assay in liquid culture; format: cell-based, Pythium ultimum (ATCC 26083); settings: Globisporangium ultimum; mycelial dry weight, 48 h at 25° C., shaking at 60 rpm; read-out: EC 50
Experimental: Selected compounds of Examples 1-120 were subjected also to the following in vitro fungitoxicity assay against Pythium ultimum in a liquid culture, with the results as indicated in Table 6.
Pythium ultimum Fungitoxicity Assay
A dilution series of the test compound was prepared in dimethylsulfoxide, and 0.1 ml of each dilution was added to 19.9 ml of a liquid asparagine-sucrose medium (D. C. Erwin and K. Katznelson (1971), Can. J. Microbiol. 7, 15) in 9 cm diameter petri dishes to give the desired final concentrations of test compound. Plates were inoculated with mycelial plugs, 7 mm diameter, taken from the growing edge of 48 h old cultures of Pythium ultimum, (ATCC 26083), grown on potato dextrose agar. Two replicate plates were used for each treatment. The increase in mycelial dry weight was determined after growth for 48 h at 25° C. with shaking at 60 rpm. EC50 values were calculated from dose response curves.

[15] = tested on: Aspergillus niger; test: Alternate Minimum Inhibitory Concentrations Test (Table 4), A.n; format: cell-based; settings: Table 4 alternate test, 250 ppm to 0.8 ppm in TSB
[16] = tested on: Aureobasidium pullulans; test: Alternate Minimum Inhibitory Concentrations Test (Table 4), A.p; format: cell-based; settings: Table 4 alternate test, 250 ppm to 0.8 ppm in TSB
[17] = tested on: Candida albicans; test: Alternate Minimum Inhibitory Concentrations Test (Table 4), C.alb; format: cell-based; settings: Table 4 alternate test, 250 ppm to 0.8 ppm in TSB
[18] = tested on: Escherichia coli; test: Alternate Minimum Inhibitory Concentrations Test (Table 4), E.c; format: cell-based; settings: Table 4 alternate test, 250 ppm to 0.8 ppm in TSB
[19] = tested on: Pseudomonas aerugenosa; test: Alternate Minimum Inhibitory Concentrations Test (Table 4), Ps.ae; format: cell-based; settings: Table 4 alternate test, 250 ppm to 0.8 ppm in TSB
[20] = tested on: Pseudomonas fluorescens; test: Alternate Minimum Inhibitory Concentrations Test (Table 4), Ps.fl; format: cell-based; settings: Pseudomonas fluorescens, read-out: MIC Ps.fl
How it was run: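 Broth microdilution MIC in TSB: compound (from acetone stock) serially diluted 1:1 from 250 ppm to 0.8 ppm, inoculated with diluted 24 h culture. After 3 days at 30 °C, the lowest concentration with no growth was recorded as MIC.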

[21] = tested on: Staphylococcus aureus; test: Alternate Minimum Inhibitory Concentrations Test (Table 4), S.a; format: cell-based; settings: Table 4 alternate test, 250 ppm to 0.8 ppm in TSB
[22] = read-out: % Control TLB, application rate 100 ppm
[23] = Table 4 alternate test, 250 ppm to 0.8 ppm in TSB, 72 hours, 30° C.

SMILES | MIC [1] [µg/mL] | MIC [2] [µg/mL] | MIC [3] [µg/mL] | MIC [4] [µg/mL] | MIC [5] [µg/mL] | MIC [6] [µg/mL] | pest or weed control at 50 ppm [7] [%] | pest or weed control at 100 ppm [8] [%] | pest or weed control at 100 ppm [9] [%] | pest or weed control at 100 ppm ([10]; read-out: % Control TLB) [%] | pest or weed control at 100 ppm [11] [%] | pest or weed control at 100 ppm [12] [%] | pest or weed control at 200 ppm [13] [%] | MIC [15] [µg/mL] | MIC [16] [µg/mL] | MIC [17] [µg/mL] | MIC [18] [µg/mL] | MIC [19] [µg/mL] | MIC [20, 23] [µg/mL] | pest or weed control at 200 ppm [10] [%] | also measured
CCCCCCCCNC(=O)/C=C\SC(=O)CC [Compound 10, N-octyl-cis-3-(propanoylthio)acrylamide] | 125 (≈ 461 µM) | < 4 | > 500 | > 500 | 16 (≈ 58.9 µM) | < 4 | 85 | 80 | 0 | 90 | 50 | 0 | 90 |  |  |  |  |  |  |  | 
CCCCCCCCNC(=O)/C=C\SC(=O)c1ccc(C)cc1C [Compound 43, N-octyl-cis-3-[(2,4-dimethylbenzoyl)thio]acrylamide] | > 500 | 16 (≈ 46 µM) | > 500 | > 500 | > 500 | > 500 | 50 | 0 |  |  | 0 | 0 | 50 |  |  |  |  |  |  |  | pest or weed control at 100 ppm [10, 22]: 0%; EC50 [14]: 5.2 µg/mL (≈ 15 µM)
CCCCCCCCNC(=O)/C=C\SC(=O)C1=CCCCC1 [Compound 9, N-octyl-cis-3-[(1-cyclohexene)carbonylthio]acrylamide] | > 500 | < 4 | > 500 | > 500 | > 500 | > 500 |  | 90 | 0 | 90 | 0 | 0 |  |  |  |  |  |  |  |  | 
CCCCCCCCNC(=O)/C=C\SC(=O)c1ccc([N+](=O)[O-])c(OC)c1 [Compound 105, N-octyl-cis-3-[(3-methoxy-4-nitrobenzoyl)thio]acrylamide] |  |  |  |  |  |  |  |  |  |  |  |  |  | 24 (≈ 60.8 µM) | < 2 | < 2 | > 250 | > 250 | ≥ 125 | 0 | MIC [21]: > 250 µg/mL; pest or weed control at 200 ppm [7]: 90%; pest or weed control at 200 ppm [11]: 0%; pest or weed control at 200 ppm [12]: 0%
CCCCCCCCNC(=O)/C=C\SC(=O)c1ccc(CCCC)cc1 [Compound 115, N-octyl-cis-3-[(4-butylbenzoyl)thio]acrylamide] | > 500 | ≥ 250 | > 500 | > 500 | > 500 | > 500 |  |  |  |  |  |  |  |  |  |  |  |  |  | 0 | MIC ([20]; 72 h): > 250 µg/mL
CCCCCCCCNC(=O)/C=C\SC(=O)CCCl [Compound 24, N-octyl-cis-3-[(3-chloropropanoyl)thio]acrylamide] |  |  |  |  |  |  |  | 0 | 0 |  | 0 | 0 |  | 63 (≈ 206 µM) | < 2 | 12 (≈ 39.2 µM) | > 250 | > 250 | > 250 |  | MIC [21]: > 250 µg/mL; pest or weed control at 100 ppm [10, 22]: 95%
C#CCNC(=O)/C=C\SC(=O)c1ccccc1 [Compound 113, N-(2-propynyl)-cis-3-(benzoylthio)acrylamide] |  |  |  |  |  |  |  |  |  |  |  |  |  | ≥ 250 | 31 (≈ 126 µM) | ≥ 125 | 31 (≈ 126 µM) | 125 (≈ 510 µM) | 63 (≈ 257 µM) | 0 | MIC [21]: 63 µg/mL (≈ 257 µM); pest or weed control at 200 ppm [7]: 50%; pest or weed control at 200 ppm [8]: 0%; pest or weed control at 50 ppm [11]: 25%; pest or weed control at 200 ppm [12]: 0%; EC50 [14]: 6.9 µg/mL (≈ 28.1 µM)
CCCCCCCCNC(=O)/C=C\SC(=O)CCC1CCCC1 [Compound 11, N-octyl-cis-3-[(3-cyclopentanepropanoyl)thio]acrylamide] | 250 (≈ 736 µM) | < 4 | > 500 | > 500 | > 500 | > 500 | 85 |  | 0 | 90 | 50 | 0 | 90 |  |  |  |  |  |  |  | pest or weed control at 50 ppm [8]: 75%
CCCCCCCCNC(=O)/C=C\SC(=O)N(c1ccccc1)c1ccccc1 [Compound 41, N-octyl-cis-3-(diphenylaminocarbonylthio)acrylamide] | > 500 | > 500 | > 500 | > 500 | > 500 | ≥ 500 |  |  | 0 |  |  |  |  |  |  |  |  |  | > 250 | 0 | pest or weed control at 200 ppm [7]: 0%; pest or weed control at 200 ppm [8]: 0%; pest or weed control at 25 ppm [11]: 100%; pest or weed control at 200 ppm [12]: 0%
CCCCCCCCNC(=O)/C=C\SC[C@H](N)C(=O)O [Compound 47, N-octyl-cis-3-[(2-amino-2-carboxyethane)thio]acrylamide] | > 500 | > 500 | > 500 | > 500 | > 500 | > 500 |  |  |  | 90 |  |  |  |  |  |  |  |  | > 250 |  | pest or weed control at 12 ppm [7]: 70%; pest or weed control at 50 ppm [8]: 0%; pest or weed control at 50 ppm [13]: 90%
